Results as given in ChEMBL document CHEMBL3351796, “Discovery of potent and selective sirtuin 2 (SIRT2) inhibitors using a fragment-based approach” (J Med Chem, 2014).

Legend:
[1] = Apparent permeability from apical to basolateral side in MDCK2 cells at 25 uM incubated for 15 to 180 mins by HPLC method; assay type: ADME, cell-based, Canis lupus familiaris, MDCK-II; conditions: dog, MDCK
[2] = Apparent permeability from basolateral to apical side in MDCK2 cells at 25 uM incubated for 15 to 180 mins by HPLC method; assay type: ADME, cell-based, Canis lupus familiaris, MDCK-II; conditions: dog, MDCK
MCF7 = assay: cells; conditions: Homo sapiens, MCF7, 48 h
Description: Cytotoxicity against human MCF7 cells assessed as reduction in cell growth incubated for 48 hrs by alamar blue assay

K562 = assay: cells; conditions: Homo sapiens, K562, 48 h
Description: Cytotoxicity against human K562 cells assessed as reduction in cell growth incubated for 48 hrs by alamar blue assay

DU-145 = assay: cells; conditions: Homo sapiens, DU-145, 48 h
Description: Cytotoxicity against human DU145 cells assessed as reduction in cell growth incubated for 48 hrs by alamar blue assay

[3] = target: T1, NAD-dependent protein deacetylase sirtuin-2 (Homo sapiens, UniProt Q8IXJ6); assay: Inhibition of full length human SIRT2 expressed in Escherichia coli BL21 (DE3) cells using fluorogenic 7-amino-4-methylcoumarin (AMC)-labeled peptide by fluorescence assay
T1 sequence (Q8IXJ6 whole entry): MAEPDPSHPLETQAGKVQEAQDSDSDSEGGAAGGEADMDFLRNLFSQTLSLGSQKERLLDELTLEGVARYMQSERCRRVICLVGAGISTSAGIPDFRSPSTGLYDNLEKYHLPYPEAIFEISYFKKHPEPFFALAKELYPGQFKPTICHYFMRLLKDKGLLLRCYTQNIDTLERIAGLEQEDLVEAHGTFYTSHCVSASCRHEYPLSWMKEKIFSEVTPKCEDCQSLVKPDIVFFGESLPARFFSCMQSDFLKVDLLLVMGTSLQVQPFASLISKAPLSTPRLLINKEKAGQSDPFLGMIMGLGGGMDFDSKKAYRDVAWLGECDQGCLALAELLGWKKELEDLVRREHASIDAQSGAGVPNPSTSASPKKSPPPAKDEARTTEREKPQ

Papp A→B at 25 µM [1]: 3.84 ×10⁻⁶ cm/s
Papp B→A at 25 µM [2]: 4.35 ×10⁻⁶ cm/s
IC50 [3]: 0.0483 µM
Structure (SMILES): NC(=O)c1cncc(Oc2cccc3c(NC(=O)c4ccccc4)cccc23)c1
CC50 (MCF7): 30.6 µM
CC50 (K562): 26.2 µM
CC50 (DU-145): 33.3 µM
